Measured values from PubChem BioAssay (NCI).
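Growth conditions: 96-well plates. Treatment: test compound, 48 hours, 5 concentrations. Analysis: linear interpolation between bracketing concentrations; unreached endpoints set to highest concentration. The concentration for 50% growth inhibition is given as GI50. The concentration for full growth arrest is given as TGI.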

Experiments:
Assay in all cases: growth of human tumour cells (NCI), 48 h
[1] = test system: MDA-MB-435
[2] = test system: SF-268 CNS
[3] = test system: K-562 leukemia
[4] = test system: UO-31 renal
[5] = test system: SNB-75 CNS
[6] = test system: 786-0 renal
[7] = test system: OVCAR-8 ovarian
[8] = test system: HOP-62 NSCLC
[9] = test system: HT29 colon
[10] = test system: MCF7 breast
[11] = test system: HCT-116 colon
[12] = test system: CAKI-1 renal
[13] = test system: SW-620 colon
[14] = test system: UACC-257 melanoma
[15] = test system: BT-549 breast
[16] = test system: HS 578T breast
[17] = test system: SK-OV-3 ovarian
[18] = test system: DU-145 prostate
[19] = test system: EKVX NSCLC
[20] = test system: U251 CNS
[21] = test system: M14 melanoma
[22] = test system: ACHN renal
[23] = test system: OVCAR-4 ovarian
[24] = test system: OVCAR-3 ovarian
[25] = test system: MOLT-4 leukemia
[26] = test system: A498 renal
[27] = test system: A549 NSCLC
[28] = test system: NCI/ADR-RES ovarian
[29] = test system: SK-MEL-2 melanoma
[30] = test system: HCT-15 colon
[31] = test system: CCRF-CEM leukemia
[32] = test system: HL-60(TB) leukemia
[33] = test system: OVCAR-5 ovarian
[34] = test system: SF-539 CNS
[35] = test system: T-47D breast
[36] = test system: RXF 393 renal
[37] = test system: SR leukemia
[38] = test system: SK-MEL-5 melanoma
[39] = test system: LOX IMVI melanoma
[40] = test system: SF-295 CNS
[41] = test system: TK-10 renal
[42] = test system: KM12 colon
[43] = test system: SK-MEL-28 melanoma
[44] = test system: NCI-H23 lung
[45] = test system: NCI-H460 lung
[46] = test system: PC-3 prostate
[47] = test system: MALME-3M melanoma
[48] = test system: SNB-19 CNS
[49] = test system: NCI-H226 lung
[50] = test system: NCI-H522 lung
[51] = test system: HCC-2998 colon
[52] = test system: MDA-MB-231 breast
[53] = test system: SN12C renal
[54] = test system: RPMI-8226 leukemia
[55] = test system: COLO 205 colon
[56] = test system: UACC-62 melanoma

COc1cc(OC)cc(Oc2cnc3cc(N)cc(N)c3n2)c1
GI50 [1]: 2.87 µM
TGI [1]: 6.76 µM
GI50 [2]: 15.5 µM
TGI [2]: 31.9 µM
GI50 [3]: 20.2 µM
TGI [3]: 46.8 µM
GI50 [4]: 22.3 µM
TGI [4]: 46.8 µM
GI50 [5]: 3.92 µM
TGI [5]: 18.6 µM
GI50 [6]: 15.2 µM
TGI [6]: 29 µM
GI50 [7]: 22.6 µM
TGI [7]: 52.5 µM
GI50 [8]: 16.9 µM
TGI [8]: 36.6 µM
GI50 [9]: 13.3 µM
TGI [9]: 30.6 µM
GI50 [10]: 20.5 µM
TGI [10]: 49.3 µM
GI50 [11]: 6.47 µM
TGI [11]: 20.2 µM
GI50 [12]: 13 µM
TGI [12]: 27.7 µM
GI50 [13]: 18.6 µM
TGI [13]: 43.7 µM
GI50 [14]: 18 µM
TGI [14]: 33.7 µM
GI50 [15]: 17.2 µM
TGI [15]: 39.2 µM
GI50 [16]: 24.7 µM
TGI [16]: 87.8 µM
GI50 [17]: 23.7 µM
TGI [17]: 74.5 µM
GI50 [18]: 17.6 µM
TGI [18]: 38.5 µM
GI50 [19]: 18.5 µM
TGI [19]: 46.2 µM
GI50 [20]: 15.5 µM
TGI [20]: 28.8 µM
GI50 [21]: 13.4 µM
TGI [21]: 26.8 µM
GI50 [22]: 15.8 µM
TGI [22]: 33.3 µM
GI50 [23]: 9.07 µM
TGI [23]: 21.8 µM
GI50 [24]: 1.83 µM
TGI [24]: 10.5 µM
GI50 [25]: 5.37 µM
TGI [25]: 20.7 µM
GI50 [26]: 11.8 µM
TGI [26]: 39.9 µM
GI50 [27]: 22.8 µM
TGI [27]: > 100 µM
GI50 [28]: 16.1 µM
TGI [28]: 43.5 µM
GI50 [29]: 19.7 µM
TGI [29]: 43.3 µM
GI50 [30]: 18.3 µM
TGI [30]: 45.1 µM
GI50 [31]: 28.5 µM
TGI [31]: > 100 µM
GI50 [32]: 5.68 µM
TGI [32]: 28 µM
GI50 [33]: 15.5 µM
TGI [33]: 30.4 µM
GI50 [34]: 21.3 µM
TGI [34]: 43.7 µM
GI50 [35]: 13.6 µM
TGI [35]: 42.4 µM
GI50 [36]: 15.4 µM
TGI [36]: 29 µM
GI50 [37]: 11.3 µM
TGI [37]: 26.1 µM
GI50 [38]: 15.3 µM
TGI [38]: 29.3 µM
GI50 [39]: 11.5 µM
TGI [39]: 24 µM
GI50 [40]: 11.6 µM
TGI [40]: 32.7 µM
GI50 [41]: 16.6 µM
TGI [41]: 38.5 µM
GI50 [42]: 10.3 µM
TGI [42]: 24.1 µM
GI50 [43]: 14.2 µM
TGI [43]: 28.4 µM
GI50 [44]: 14.6 µM
TGI [44]: 28.8 µM
GI50 [45]: 19.4 µM
TGI [45]: 41.2 µM
GI50 [46]: 24.7 µM
TGI [46]: 56 µM
GI50 [47]: 10.7 µM
TGI [47]: 22.5 µM
GI50 [48]: 17.5 µM
TGI [48]: 45.6 µM
GI50 [49]: 17.1 µM
TGI [49]: 38 µM
GI50 [50]: 18.7 µM
TGI [50]: 37.3 µM
GI50 [51]: 14.6 µM
TGI [51]: 28.8 µM
GI50 [52]: 6.56 µM
TGI [52]: 21 µM
GI50 [53]: 15.8 µM
TGI [53]: 29.3 µM
GI50 [54]: 24 µM
TGI [54]: 53.7 µM
GI50 [55]: 14 µM
TGI [55]: 37.5 µM
GI50 [56]: 14.4 µM
TGI [56]: 27.8 µM
